Target: T1, recombinant human NK3 receptor (Homo sapiens, UniProt P29371)
T1 construct: expressed in transfected cells; host or cells: HEK293 cells, transient expression; membranes
T1 sequence (P29371 1-465): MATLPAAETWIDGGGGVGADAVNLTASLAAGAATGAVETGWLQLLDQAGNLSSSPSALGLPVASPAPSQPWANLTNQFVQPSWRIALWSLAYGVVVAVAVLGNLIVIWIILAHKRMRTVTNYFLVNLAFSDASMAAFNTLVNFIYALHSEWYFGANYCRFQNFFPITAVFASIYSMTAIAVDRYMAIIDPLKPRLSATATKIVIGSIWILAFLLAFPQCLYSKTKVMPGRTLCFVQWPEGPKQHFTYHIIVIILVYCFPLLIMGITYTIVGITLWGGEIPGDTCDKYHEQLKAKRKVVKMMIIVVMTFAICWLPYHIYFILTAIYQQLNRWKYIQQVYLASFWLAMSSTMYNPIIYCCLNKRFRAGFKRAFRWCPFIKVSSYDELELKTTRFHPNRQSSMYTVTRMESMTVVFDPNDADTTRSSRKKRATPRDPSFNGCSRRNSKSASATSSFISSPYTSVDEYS
Assay: [3H]SR142801 competition binding assay
Conditions: not given

SMILES	Ki [nM]
Cc1ccc(OC(=O)N(C)[C@@H]2CN(C(=O)C3CCN(C(=O)C4(C)CC4)CC3)C[C@H]2c2ccc(Cl)c(Cl)c2)cc1 [Example 17, {(3S,4R)-4-(3,4-Dichloro-phenyl)-1-[1-(1-methyl-cyclopropanecarbonyl)-piperidine-4-carbonyl]-pyrrolidin-3-yl}-methyl-carbamic acid p-tolyl ester]	0.7
CN(C(=O)Oc1ccc(F)cc1)[C@@H]1CN(C(=O)C2CCN(c3ccc(C(F)(F)F)cn3)CC2)C[C@H]1c1ccc(Cl)c(F)c1 [Example 313, [(3S,4R)-4-(4-Chloro-3-fluoro-phenyl)-1-(5′-trifluoromethyl-3,4,5,6-tetrahydro-2H-[1,2′]bipyridinyl-4-carbonyl)-pyrrolidin-3-yl]-methyl-carbamic acid 4-fluoro-phenyl ester]	0.9
CN(C(=O)Oc1ccc(Cl)cc1)[C@H]1CN(C(=O)C2CCN(C(=O)C3(C)CC3)CC2)C[C@@H]1c1ccc(Cl)c(Cl)c1 (racemic) [Example 12, rac-{(3R,4S)-4-(3,4-Dichloro-phenyl)-1-[1-(1-methyl-cyclopropanecarbonyl)-piperidine-4-carbonyl]-pyrrolidin-3-yl}-methyl-carbamic acid 4-chloro-phenyl ester]	0.6
CN(C(=O)Oc1ccc(F)cc1)[C@@H]1CN(C(=O)C2CCN(c3ccc(C#N)cn3)CC2)C[C@H]1c1ccc(F)cc1 [Example 131, [(3S,4R)-1-(5′-Cyano-3,4,5,6-tetrahydro-2H-[1,2′]bipyridinyl-4-carbonyl)-4-(4-fluoro-phenyl)-pyrrolidin-3-yl]-methyl-carbamic acid 4-fluoro-phenyl ester]	1
CN(C(=O)Oc1ccc(F)cc1)[C@@H]1CN(C(=O)C2CCN(c3ccc(Cl)cn3)CC2)C[C@H]1c1ccc(Cl)c(F)c1 [Example 312, [(3S,4R)-4-(4-Chloro-3-fluoro-phenyl)-1-(5′-chloro-3,4,5,6-tetrahydro-2H-[1,2′]bipyridinyl-4-carbonyl)-pyrrolidin-3-yl]-methyl-carbamic acid 4-fluoro-phenyl ester]	0.4
CC(C)N1CC(C(=O)N2CCC(C(=O)N3C[C@@H](N(C)C(=O)Oc4ccc(F)cc4)[C@H](c4ccc(Cl)cc4)C3)CC2)CCC1=O (stereo partly drawn) [Example 264, {(3S,4R)-4-(4-Chloro-phenyl)-1-[1-(1-isopropyl-6-oxo-piperidine-3-carbonyl)-piperidine-4-carbonyl]-pyrrolidin-3-yl}-methyl-carbamic acid 4-fluoro-phenyl ester]	8.8
CN(C(=O)Oc1ccc(C#N)cc1F)[C@@H]1CN(C(=O)C2CCN(c3ccc(C#N)cn3)CC2)C[C@H]1c1ccc(Cl)cc1 [Example 237, [(3S,4R)-4-(4-Chloro-phenyl)-1-(5′-cyano-3,4,5,6-tetrahydro-2H-[1,2′]bipyridinyl-4-carbonyl)-pyrrolidin-3-yl]-methyl-carbamic acid 4-cyano-2-fluoro-phenyl ester]	0.4
CN(C(=O)O[C@H]1C[C@H]2CC[C@@H]1C2)[C@H]1CN(C(=O)C2CCN(C(=O)C3(C)CC3)CC2)C[C@@H]1c1ccc(Cl)c(Cl)c1 (mixture of isomers) [Example 68, {(3R,4S)-4-(3,4-Dichloro-phenyl)-1-[1-(1-methyl-cyclopropanecarbonyl)-piperidine-4-carbonyl]-pyrrolidin-3-yl}-methyl-carbamic acid (1R,2S,4S)-bicyclo[2.2.1]hept-2-yl ester and {(3S,4R)-4-(3,4-Dichloro-phenyl)-1-[1-(1-methyl-cyclopropanecarbonyl)-piperidine-4-carbonyl]-pyrrolidin-3-yl}-methyl-carbamic acid (1R,2S,4S)-bicyclo[2.2.1]hept-2-yl ester]	62.6

Same assay, conditions: hNK-3 receptor affinity; membranes from HEK293 cells transiently expressing recombinant human NK3 receptor; [3H]SR142801; Cheng-Prussoff; read-out: Data Ki

Ki [nM]	SMILES
26.4	CN(C(=O)OCCC1CC1)[C@H]1CN(C(=O)C2CCN(C(=O)C3(C)CC3)CC2)C[C@@H]1c1ccc(Cl)cc1 (stereo in doubt) [Example 54, rac-{(3R,4S)-4-(4-Chloro-phenyl)-1-[1-(1-methyl-cyclopropanecarbonyl)-piperidine-4-carbonyl]-pyrrolidin-3-yl}-methyl-carbamic acid 2-cyclopropyl-ethyl ester]

From US9226916B2, “Pyrrolidine derivatives” (HOFFMANN-LA ROCHE INC., priority 2009, dated 2016)
